Data on six compounds can be found in article PMC9525908, “α-Crystallin chaperone mimetic drugs inhibit lens γ-crystallin aggregation: Potential role for cataract prevention” (The Journal of Biological Chemistry, 2022).

The target in one assay is T1, WT-HγD (Homo sapiens, UniProt P07320).
T1 construct: made in house; host or cells: E. coli BL21(DE3) pLysS, pET3d vector
T1 sequence (P07320 1-174): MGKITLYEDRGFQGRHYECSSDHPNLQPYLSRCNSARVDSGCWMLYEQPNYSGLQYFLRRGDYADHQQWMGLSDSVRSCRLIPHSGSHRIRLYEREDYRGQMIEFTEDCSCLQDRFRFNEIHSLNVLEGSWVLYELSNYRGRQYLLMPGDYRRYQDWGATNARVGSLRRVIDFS
As to the kind of experiment: bis-ANS binding study, WT-HγD. As to conditions: 10 μM protein, 100 μM drug; read-out: Percent inhibition of binding of bis-ANS, WT-HγD. On the procedure:
(§1) Extrinsic fluorescence spectra were recorded using bis-ANS, a well-known surface hydrophobicity probe. The spectra were recorded between 400 and 600 nm after exciting at 390 nm. The experiment was performed on 10 μM of HγD and MγS in 50 mM K3PO4 buffer with and without our candidate drugs (100 μM). Bis-ANS stock solution was prepared in methanol whose final percentage was maintained below 7 after mixing with proteins ([81]).

The next assay addresses T2, HγS_N14/76/143D (Homo sapiens, UniProt P22914, N144D/N15D/N77D).
T2 sequence (P22914 1-178 N15D/N77D/N144D): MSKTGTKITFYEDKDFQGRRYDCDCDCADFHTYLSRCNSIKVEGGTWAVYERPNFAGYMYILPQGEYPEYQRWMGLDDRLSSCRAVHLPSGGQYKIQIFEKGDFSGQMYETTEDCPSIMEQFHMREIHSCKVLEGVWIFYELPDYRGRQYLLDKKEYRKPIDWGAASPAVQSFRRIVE
As to the kind of experiment: Thermal aggregation (72 °C, 20 min) turbidity assay, HγS triple mutant. The assay is classed as biochemical. As to conditions: read-out: % Suppression; for inhibition: HγS_N14/76/143D, 75 μM protein, 72 °C 20 min. The text has this: (§2) For a review, see the study by Roskamp et al. ([38]). […] For the mechanistic studies below these two compounds together with either drug M, chosen mostly as negative control, or the entire set of six compounds were used for comparison purpose, whereby the words “drug” or “compound” are used interchangeably in the studies later.

A further assay has as its target T3, HγS_N14D (Homo sapiens, UniProt P22914, N15D).
T3 sequence (P22914 1-178 N15D): T2 sequence (P22914 1-178 N15D/N77D/N144D) with D77N, D144N
As to the kind of experiment: Thermal aggregation (72 °C, 20 min) turbidity assay, HγS_N14D. The assay is classed as biochemical. As to conditions: read-out: % Suppression; for inhibition: HγS_N14D, 75 μM protein, 72 °C 20 min.
Description: as §2

Another assay concerns the target T4, OPJ-MγS (Mus musculus, UniProt O35486, F10S).
T4 construct: made in house; host or cells: E. coli BL21(DE3) pLysS, pET17b vector
T4 sequence (O35486 1-178 F10S): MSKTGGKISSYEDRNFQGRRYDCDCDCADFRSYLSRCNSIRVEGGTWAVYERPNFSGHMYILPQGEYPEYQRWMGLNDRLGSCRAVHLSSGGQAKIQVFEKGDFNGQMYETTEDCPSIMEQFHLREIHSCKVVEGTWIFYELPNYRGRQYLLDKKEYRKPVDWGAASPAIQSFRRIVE
As to the kind of experiment: bis-ANS binding study, OPJ-MγS. The note with it: 10 μM protein, 100 μM drug; read-out: Percent inhibition of binding of bis-ANS, OPJ-MγS. On the procedure:
as §1

The target of assay [1] is T5, WT-MγS (Mus musculus, UniProt O35486).
T5 construct: made in house; host or cells: E. coli BL21(DE3) pLysS, pET17b vector
T5 sequence (O35486 1-178): T4 sequence (O35486 1-178 F10S) with S10F
As to the kind of experiment: End-point heat-mediated turbidity assay, WT-MγS. The assay is classed as biochemical. As to conditions: for inhibition at 500 µM: read-out: Percent Inhibition of heat mediated aggregation, WT-MGS; for Effect on MγS absorbance: 400 μM drug, 72 °C, protein above 0.5 mg/ml. Here is the method: For end-point assays, HγD and MγS (1 mg/ml, 100 μl) in 50 mM K3PO4 buffer (pH 7.2) in set of triplicates in transparent flat bottom 96-well plates were heated at 72 °C for 20 min in the presence and absence of selected drugs at varying concentrations. Absorbance was measured at 600 nm with a SpectraMax iD5 (Molecular Devices). […]
Final DMSO concentration was 5% including in control samples. Microtiter plates were first incubated for 10 min at 72 °C and reincubated for 10 more min. Absorbance was measured at both 10 and 20 min total incubation time.

A further assay has as its target T6, HγS_N76D (Homo sapiens, UniProt P22914, N77D).
T6 sequence (P22914 1-178 N77D): T2 sequence (P22914 1-178 N15D/N77D/N144D) with D15N, D144N
As to the kind of experiment: Thermal aggregation (72 °C, 20 min) turbidity assay, HγS_N76D. Format: biochemical. The note with it: read-out: % Suppression; for inhibition: HγS_N76D, 75 μM protein, 72 °C 20 min.
Description: as §2

The next assay addresses T7, HγS (Homo sapiens, UniProt P22914).
T7 sequence (P22914 1-178): T2 sequence (P22914 1-178 N15D/N77D/N144D) with D15N, D77N, D144N
As to the kind of experiment: Thermal aggregation (72 °C, 20 min) turbidity assay, HγS. The assay is classed as biochemical. As to conditions: 20 min, read-out: % Suppression; for inhibition: HγS, 75 μM protein, 72 °C 20 min.
Description: as §2

Assay [2] deals with T5, WT-MγS. As to the kind of experiment: bis-ANS binding study, WT-MγS. The note with it: read-out: Percent inhibition of binding of bis-ANS, WT-MγS. On the procedure:
as §1

[3] abbreviates: 500 μM drug, end point of turbidity assay 72 °C 20 min.

Where a chain is given by its changes, count along the chain named. Read-outs that look alike come from different tables or passages of the source.

Consider `O=C(O)CCCCCCCCCCCC[C@@H]1C=CCC1` [drug M, Chaulmoogric acid], for which the inhibition at 100 µM at WT-HγD worked out at 4.28 ± 0.0003%; on OPJ-MγS, 3.48 ± 0.001%; at WT-MγS [2] (10 μM protein, 100 μM drug) it was 1.95 ± 0.0017%. In addition, the inhibition was found to be 46% at HγS_N14/76/143D, 48% on HγS_N14D, 55% on HγS_N76D and 39% on HγS. The inhibition at 500 µM on WT-MγS [1] (setting [3]) worked out at 46.3 ± 4.23%.
In the case of `CC(C)=CCC[C@]1(C)C=Cc2c(O)c3c(c(CC=C(C)C)c2O1)O[C@]12C(=C[C@@H]4C[C@H]1C(C)(C)O[C@@]2(C/C=C(/C)C(=O)O)C4=O)C3=O` [drug G, Gambogic acid], the inhibition at 100 µM was 44.64 ± 0.0011% at WT-HγD, 31.62 ± 0.00057% at OPJ-MγS and 40.72 ± 0.0008% at WT-MγS [2]. The inhibition at 125 µM at HγS_N14/76/143D turned out to be 89%; at HγS_N14D, 73%; at HγS_N76D, 55%; on HγS, 46%. The “Effect on MγS absorbance” value on WT-MγS [1] is “blocked absorbance”. Further, the inhibition at 500 µM on WT-MγS [1] is 80.5 ± 2.45%.
For `Oc1c(Cl)cc(Cl)c(Cl)c1Cc1c(O)c(Cl)cc(Cl)c1Cl` [drug X, Hexachlorophene], the inhibition at 100 µM is 15.16 ± 0.001% at WT-HγD, 2.45 ± 0.00075% on OPJ-MγS and 10.17 ± 0.0014% on WT-MγS [2]. Also, the inhibition at 125 µM on HγS_N14/76/143D amounted to 71%; at HγS_N14D, 60%; on HγS_N76D it was 60%; at HγS it was 68%. Also, at WT-MγS [1], the inhibition at 500 µM was 39.7 ± 3.42%.
Turning to `COC(=O)/C=C/C(C)=C\C=C\C(C)=C\C=C\C=C(C)\C=C\C=C(C)\C=C\C(=O)O` [drug B, Bixin], the inhibition at 100 µM at WT-HγD is 27.86 ± 0.0009%; on OPJ-MγS, 11.83 ± 0.00091%; on WT-MγS [2] (10 μM protein, 100 μM drug) it was 11.94 ± 0.0018%. Further, the inhibition turned out to be 46% at HγS_N14/76/143D, 51% at HγS_N14D, 57% on HγS_N76D and 60% on HγS. Further, the inhibition at 500 µM on WT-MγS [1] (setting [3]) came to 55.5 ± 8.03%.
For `Cc1cc(C(C#N)c2ccc(Cl)cc2)c(Cl)cc1NC(=O)c1cc(I)cc(I)c1O` (centres unmarked) [drug C, Closantel], the inhibition at 100 µM at WT-HγD worked out at 43.82 ± 0.0012%; on OPJ-MγS, 20.28 ± 0.00089%; at WT-MγS [2], 27.16 ± 0.0011%. In addition, the inhibition at 125 µM is 76% on HγS_N14/76/143D, 77% at HγS_N14D, 70% on HγS_N76D and 71% at HγS. Also, the “Effect on MγS absorbance” value on WT-MγS [1] is recorded as “blocked absorbance”. The inhibition at 500 µM on WT-MγS [1] turned out to be 80.5 ± 1.87%.
Regarding `CC(C)=CCCC1(C)C=Cc2c(O)c3c(c(CC=C(C)C)c2O1)OC12C(=CC4CC1C(C)(C)OC2(C/C=C(/C)C(=O)O)C4O)C3=O` (centres unmarked) [drug D, dihydrogambogic acid], the inhibition at 100 µM on WT-HγD is 34.5 ± 0.0006%; on OPJ-MγS it was 7.76 ± 0.00097%; at WT-MγS [2], 19.49 ± 0.0018%. Moreover, the inhibition at 125 µM was 32% on HγS_N14/76/143D, 76% at HγS_N14D, 59% at HγS_N76D and 61% at HγS. Also, the inhibition at 500 µM on WT-MγS [1] amounted to 80.4 ± 0.44%.
